Experimental data from patent publication US11066357B2, “Benzoannulene derivatives as antiviral agents” (Southern Research Institute, priority 2017, dated 2021).

Key:
[1] = tested on: CHIKV; assay: antiviral activity (EC50), Table 1; format: cell-based; conditions: Chikungunya virus
[2] = cytotoxicity (CC50), Table 1

SMILES	EC50 [1] [µM]	CC50 [2] [µM]
COc1cc2c(cc1C(=O)Nc1ccc(OC(F)(F)F)cc1)CCCCC2 [Compound 14, 3-methoxy-N-(4-(trifluoromethoxy)phenyl)-6,7,8,9-tetrahydro-5H-benzo[7]annulene-2-carboxamide]	> 40	> 40
CCn1nc(C(F)(F)F)c(NC(=O)c2cc3c(cc2OC)CCCCC3)c1C [Compound 6, N-(1-ethyl-5-methyl-3-(trifluoromethyl)-1H-pyrazol-4-yl)-3-methoxy-6,7,8,9-tetrahydro-5H-benzo[7]annulene-2-carboxamide]	35.2	> 40
COc1cc2c(cc1C(=O)Nc1cc(C(C)(C)C)[nH]n1)CCCCC2 [Compound 26, N-(5-(tert.-butyl)-1H-pyrazol-3-yl)-3-methoxy-6,7,8,9-tetrahydro-5H-benzo[7]annulene-2-carboxamide]	7.03	15.5
